Measured values as given in ChEMBL document CHEMBL1201862, “PubChem BioAssay data set” (2004).
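48-hour exposure; five concentrations; linearly interpolated endpoints. Here, GI50 denotes the concentration required for 50% inhibition of growth.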 The source made the active and inactive calls. Rule as the data show it: active = GI50 up to about 1.1 µM and inactive = higher.

Columns and labels:
Assay in all cases: NCI tumour cell line growth inhibition, 48 h
A498 = tested on: A498
COLO 205 = tested on: COLO 205
HCT-116 = tested on: HCT-116
HCT-15 = tested on: HCT-15
HOP-62 = tested on: HOP-62
HT-29 = tested on: HT-29
K562 = tested on: K562
MCF7 = tested on: MCF7
MDA-MB-435 = tested on: MDA-MB-435
MOLT-4 = tested on: MOLT-4
NCI-H460 = tested on: NCI-H460
NCI-H522 = tested on: NCI-H522
RXF 393 = tested on: RXF 393
SF-268 = tested on: SF-268
SF-295 = tested on: SF-295
SF-539 = tested on: SF-539
SNB-19 = tested on: SNB-19
SR = tested on: SR
SW-620 = tested on: SW-620
UACC-62 = tested on: UACC-62

Compound | GI50 (A498) | GI50 (COLO 205) | GI50 (HCT-116) | GI50 (HCT-15) [µM] | GI50 (HOP-62) | GI50 (HT-29) | GI50 (K562) | GI50 (MCF7) | GI50 (MDA-MB-435) | GI50 (MOLT-4) | GI50 (NCI-H460) | GI50 (NCI-H522) | GI50 (RXF 393) | GI50 (SF-268) | GI50 (SF-295) | GI50 (SF-539) | GI50 (SNB-19) | GI50 (SR) | GI50 (SW-620) | GI50 (UACC-62)
CCOC(=O)N/N=C(/OCC)c1ccccc1 | > 100 µM (inactive) | > 100 µM (inactive) | > 100 µM (inactive) | > 100 | > 100 µM (inactive) | > 100 µM (inactive) | > 100 µM (inactive) | > 100 µM (inactive) | > 100 µM (inactive) | > 100 µM (inactive) | > 100 µM (inactive) | > 100 µM (inactive) | > 100 µM (inactive) | > 100 µM (inactive) | > 100 µM (inactive) | > 100 µM (inactive) | > 100 µM (inactive) | > 100 µM (inactive) | > 100 µM (inactive) | > 100 µM (inactive)
COC(=O)C1=CSC2(S1)C(C(=O)OC)=CSc1c2ss/c1=N\c1ccccc1 (stereo not given) | 1.64 µM (inactive) | 2.16 µM (inactive) | 1.83 µM (inactive) | 1.74 | 2.88 µM (inactive) | 2.48 µM (inactive) | 2.7 µM (inactive) | 3.79 µM (inactive) | 1.78 µM (inactive) | 0.714 µM (active) | 3.07 µM (inactive) | 1.25 µM (inactive) | 1.78 µM (inactive) | 3.02 µM (inactive) | 1.81 µM (inactive) | 1.38 µM (inactive) | 2.47 µM (inactive) | 0.605 µM (active) | 2.51 µM (inactive) | 1.6 µM (inactive)
Cc1cc(N(CCCl)CCCl)ccc1/C=N/NC(=O)Cc1cc(=O)oc2cc(O)ccc12 | 13.7 µM (inactive) | 17.7 µM (inactive) | 17.5 µM (inactive) | 14.4 | 19 µM (inactive) | 14.7 µM (inactive) | 9.18 µM (inactive) | 5.83 µM (inactive) | 11.2 µM (inactive) | 5.6 µM (inactive) | 8.93 µM (inactive) | 13.7 µM (inactive) | 16.6 µM (inactive) | 10.2 µM (inactive) | 17.2 µM (inactive) | 18 µM (inactive) | 18 µM (inactive) | 7.08 µM (inactive) | 21.4 µM (inactive) | 2.37 µM (inactive)
CC1OC(OC2C(O)COC(OC3C(C)OC(OC4C(OC(=O)[C@]56CCC(C)(C)C[C@@H]5C5=CCC7[C@@]8(C)C[C@H](O)[C@H](OC9OC(CO)C(O)C(OC%10OC(CO)C(O)C(O)C%10O)C9O)[C@@](C)(CO)[C@@H]8CC[C@@]7(C)[C@]5(C)CC6)OCC(O)C4O)C(O)C3O)C2O)C(O)C(O)C1O (stereo not given in full) | 11.8 µM (inactive) | 5.15 µM (inactive) | 17.7 µM (inactive) | 19.7 | 14.3 µM (inactive) | 17.2 µM (inactive) | 31.2 µM (inactive) | 16.4 µM (inactive) | 20.9 µM (inactive) | 15.5 µM (inactive) | 19 µM (inactive) | 15.5 µM (inactive) | 12.1 µM (inactive) | 21.4 µM (inactive) | 14.4 µM (inactive) | 18.4 µM (inactive) | 16.4 µM (inactive) | 13.1 µM (inactive) | 14.5 µM (inactive) | 22.3 µM (inactive)
Cn1c(=O)cc(NNc2ccccc2)[nH]c1=O | > 100 µM (inactive) | > 100 µM (inactive) | 17.8 µM (inactive) | 16.4 | > 100 µM (inactive) | 15.7 µM (inactive) | 38.2 µM (inactive) | 1.78 µM (inactive) | 28.2 µM (inactive) | 37.9 µM (inactive) | > 100 µM (inactive) | 15.1 µM (inactive) | 18 µM (inactive) | 44.3 µM (inactive) | > 100 µM (inactive) | > 100 µM (inactive) | > 100 µM (inactive) | 10.7 µM (inactive) | 17.5 µM (inactive) | 59.4 µM (inactive)
COC1C(=O)CCC2(CO2)C1(O)C1(C)OC1CCC(C)C (stereo not given) | > 100 µM (inactive) | 23.9 µM (inactive) | 21.5 µM (inactive) | 29.4 | 54.5 µM (inactive) | 22.2 µM (inactive) | 32.5 µM (inactive) | 54.8 µM (inactive) | 61.1 µM (inactive) | 40.1 µM (inactive) | < 0.01 µM (active) | > 100 µM (inactive) | > 100 µM (inactive) | 78.3 µM (inactive) | 13.6 µM (inactive) | > 100 µM (inactive) | 34.2 µM (inactive) | > 100 µM (inactive) | 19.8 µM (inactive) | 36.2 µM (inactive)
O=C(CCC1CCCCC1)NCc1ccc(C(=O)O)cc1 | > 100 µM (inactive) | > 100 µM (inactive) | > 100 µM (inactive) | > 100 | > 100 µM (inactive) | > 100 µM (inactive) | > 100 µM (inactive) | > 100 µM (inactive) | > 100 µM (inactive) | > 100 µM (inactive) | > 100 µM (inactive) | > 100 µM (inactive) | > 100 µM (inactive) | > 100 µM (inactive) | > 100 µM (inactive) | > 100 µM (inactive) | > 100 µM (inactive) | > 100 µM (inactive) | > 100 µM (inactive) | > 100 µM (inactive)
C=CCOC(=O)N1c2ccc(O)cc2[C@@]23O[C@@]24[C@@H]1C#C/C=C\C#C[C@]3(O)C(OC)(OC)C[C@@H]4C | 25.5 µM (inactive) | 19.1 µM (inactive) | 35.2 µM (inactive) | 44.2 | 34.6 µM (inactive) | 21.7 µM (inactive) | 34.8 µM (inactive) | 35 µM (inactive) | 15.1 µM (inactive) | 16.3 µM (inactive) | 24.4 µM (inactive) | 31.3 µM (inactive) | 41.7 µM (inactive) | 36.5 µM (inactive) | 36.9 µM (inactive) | 21.6 µM (inactive) | 58.2 µM (inactive) | 24.2 µM (inactive) | 52.2 µM (inactive) | 33.7 µM (inactive)
Cc1cc(C)nc(NS(=O)(=O)c2ccc(Nc3c4ccccc4nc4ccc(C(=O)Nc5ccc(S(N)(=O)=O)cc5)cc34)cc2)n1 | > 100 µM (inactive) | > 100 µM (inactive) | > 100 µM (inactive) | > 100 | > 100 µM (inactive) | > 100 µM (inactive) | 66.4 µM (inactive) | > 100 µM (inactive) | > 100 µM (inactive) | > 100 µM (inactive) | > 100 µM (inactive) | > 100 µM (inactive) | > 100 µM (inactive) | > 100 µM (inactive) | > 100 µM (inactive) | > 100 µM (inactive) | > 100 µM (inactive) | > 100 µM (inactive) | > 100 µM (inactive) | > 100 µM (inactive)
CC(C)CCNC(=O)c1ccc(CNC(=O)/C=C/c2cccc(Oc3ccccc3)c2)cc1 | 30.8 µM (inactive) | > 100 µM (inactive) | 24.5 µM (inactive) | 38.6 | 18.7 µM (inactive) | 30.5 µM (inactive) | > 100 µM (inactive) | 36.5 µM (inactive) | 13.6 µM (inactive) | > 100 µM (inactive) | 34.3 µM (inactive) | 52.5 µM (inactive) | 18.6 µM (inactive) | 37.3 µM (inactive) | 23.8 µM (inactive) | 11.6 µM (inactive) | 24.5 µM (inactive) | 8.77 µM (inactive) | 41.4 µM (inactive) | 23.8 µM (inactive)
CC(CN(C)C)C(=O)/C=C/c1ccc(Cl)c(Cl)c1 (stereo not given) | 1.78 µM (inactive) | 1.3 µM (inactive) | 1.56 µM (inactive) | 1.59 | 2.96 µM (inactive) | 1.67 µM (inactive) | 3.01 µM (inactive) | 0.307 µM (active) | 1.63 µM (inactive) | 2.67 µM (inactive) | 2.24 µM (inactive) | 1.55 µM (inactive) | 12.6 µM (inactive) | 1.85 µM (inactive) | 3.44 µM (inactive) | 1.46 µM (inactive) | 5.43 µM (inactive) | 1.02 µM (active) | 2.07 µM (inactive) | 1.8 µM (inactive)
COC(=O)C(CNC(=O)/C=C/c1ccc(OC(C)=O)c(OC(C)=O)c1)NC(=O)/C=C/c1ccc(OC(C)=O)c(OC(C)=O)c1 (stereo not given) | > 100 µM (inactive) | > 100 µM (inactive) | > 100 µM (inactive) | > 100 | > 100 µM (inactive) | > 100 µM (inactive) | 64.1 µM (inactive) | > 100 µM (inactive) | > 100 µM (inactive) | 30 µM (inactive) | > 100 µM (inactive) | 32.1 µM (inactive) | > 100 µM (inactive) | > 100 µM (inactive) | > 100 µM (inactive) | > 100 µM (inactive) | 93.3 µM (inactive) | 92.9 µM (inactive) | > 100 µM (inactive) | > 100 µM (inactive)
C[C@H](CCC(=O)O)[C@H]1CC[C@@]2(C)[C@@H]3C(=O)C[C@H]4C(C)(C)[C@@H](O)CC[C@]4(C)[C@H]3C(=O)C[C@]12C | > 100 µM (inactive) | > 100 µM (inactive) | > 100 µM (inactive) | > 100 | > 100 µM (inactive) | > 100 µM (inactive) | > 100 µM (inactive) | > 100 µM (inactive) | > 100 µM (inactive) | > 100 µM (inactive) | 62.7 µM (inactive) | > 100 µM (inactive) | > 100 µM (inactive) | > 100 µM (inactive) | > 100 µM (inactive) | > 100 µM (inactive) | > 100 µM (inactive) | > 100 µM (inactive) | > 100 µM (inactive) | > 100 µM (inactive)
NS(=O)(=O)c1ccc(/N=N/c2nc3[nH]cnc(=S)c3[nH]2)cc1 | 23 µM (inactive) | 2.43 µM (inactive) | 0.568 µM (active) | 2.09 | 0.564 µM (active) | 1.34 µM (inactive) | 0.3 µM (active) | 0.944 µM (active) | 0.975 µM (active) | 0.134 µM (active) | 0.82 µM (active) | 0.887 µM (active) | 1.03 µM (active) | 0.885 µM (active) | 1.59 µM (inactive) | 3.92 µM (inactive) | > 100 µM (inactive) | 0.0803 µM (active) | 2.29 µM (inactive) | 0.388 µM (active)
